Reference: US10792483B2, “Tumor vaccination” (XAX KFT., priority 2012, dated 2020)
“Also recorded” adds a separate entry of the source.

How the values were obtained:
[1] = test system: Melanoma; details: phase III, 185 patients; cited from earlier work
[2] = test system: melanoma with lung metastases; assay: Case report, dog treated with oncothermia and low dose Carboplatine (Example 11); assay type: in vivo, Cocker spaniel; details: low dose Carboplatine 2 times (100 mg/m^2) + oncothermia 10 times in 2 weeks on the chest
Procedure: Case No.:11461, Cocker spaniel, 8 years, castrated male,
Diagnosis: melanoma with lung metastases. The primary tumor was situated on the right hind leg and was removed surgically. 5 months later metastases in the lung occurred, at that time we started the treatment.
Oncothermia (10 times in a 2 weeks period)
Low dose Carboplatine 2 times, (100 mg/m^2)
The site of the OTM treatment was on the chest, exactly at the line of the heart.

[3] = test system: non small cells lung cancer; assay: Case report, patient treated with radiotherapy, oncothermia and GM-CSF (Example 13); assay type: in vivo, human; details: for Response of far-distant metastases (abscopal effect, PET scan): GM-CSF (Leukine) subcutaneously with oncothermia (and radiotherapy) of the primary tumor only; for Response of the primary (treated) tumor: GM-CSF (Leukine) with oncothermia (and radiotherapy)
From the text: A patient was diagnosed with unclassifiable non small cells lung cancer. The classification of the tumor at first diagnosis was cT2N2M0, stage IIIB. Despite of the advanced case the patient refused any treatment. Five months later, they visited outpatient department of complementary and alternative medicine with complaints of hemoptysis and dyspnea on exertion gradually worsened 4 weeks before. They were referred to medical oncology department and admitted for re-evaluation.
The patient had no co-morbidities and no medical history. However, they still refused chemotherapy and together with their family members requested other possible treatment options.
In these circumstances we made radiotherapy in combination with oncothermia and GM-CSF expecting to induce abscopal effect. Local field radiation therapy to lung mass was delivered at a dose of […] in 28 daily fractions for 5-6 treatments in a week. It was followed by oncothermia after radiation 3 times a week. After 2 weeks of oncothermia treatment, GM-CSF (250 microgram, Leukine®, USA) was administered subcutaneously once a day for 10 days. GM-CSF in dose 125 μg/m^2 was given subcutaneously for 14 days after one week of radiotherapy. The result supported that using GM-CSF was feasible and its effect enhanced the immune therapy.

In the case of “gp100:209-217(210M): listed under vaccines with peptides (IMDQVPFSV; UniProt P40967 209-217, looked up, variant T210M)”, the “RR and PES” value [1] is listed as “Significant improve-”.

For `N.N.O=C([O-])C1(C(=O)[O-])CCC1.[Pt+2]` [Carboplatine], the “Tumor regression (CT image series)” value [2] was “Significant tumor regression was observed not only at the site of the treatment, but outside of the directly OTM treated area”.

With “Leukine®: sargramostim; recombinant granulocyte macrophage colony-stimulating factor” the “Response of far-distant metastases (abscopal effect, PET scan)” value [3] was “beneficial effect also on the far-distances metastases, which disappear; also recorded: the metastases disappeared”, the “Response of far-distant metastases (abscopal effect, PET scan)” value ([3]; listed as GM-CSF) was “nearly complete remission in multiple metastatic lymph nodes; also recorded: successful abscopal effect” and the “Response of the primary (treated) tumor” value [3] was “started to shrink”. For the same compound, the “Response of the primary (treated) tumor” value ([3]; listed as GM-CSF) was “shrinking” and the Adverse effects ([3]; radiotherapy + oncothermia + GM-CSF, end of treatment period) was “no severe adverse effects except grade 1 fatigue”.
